From patent US12036224B2, “Formulations, methods, kits, and dosage forms for treating atopic dermatitis and for improved stability of an active pharmaceutical ingredient” (Libertas Bio, Inc., priority 2017, dated 2024)

System: IL-17-SYK mediated CCL20 release, human keratinocytes
Experiment: Inhibition of IL17 mediated CCL20 release in keratinocytes
Format: cell-based
Details: single donor, n=3
Procedure: In FIG. 12, each bar represents mean and SEM for 3 replicates (n=3) of a single donor. FIG. 13 is a graph showing average weekly change in pruritus (NRS) for a placebo, and Compound 1 in the doses of 20 mg, 40 mg and 80 mg.

**Q.** With COc1cc(Nc2ncc(F)c(Nc3ccc4c(n3)NC(=O)C(C)(C)O4)n2)cc(OC)c1OC [Tamatinib, reference compound] as the molecule, how does the “inhibition of IL-17-SYK mediated CCL20 release” value read?
**A.** unlike Tamatinib and Tofacitinib, Compound 1 inhibits
